Measured values: patent US20220315534A1, “BETA ADRENERGIC AGONIST AND METHODS OF USING THE SAME” (Curasen Therapeutics, Inc., priority 2019, published 2022)

target: T1, β1-adrenergic receptor (B1-AR) (Homo sapiens, UniProt P08588); test: cAMP Gs dynamic HTRF assay, cells expressing β1-adrenergic receptor; type: cell-based; details: CHO-K1 (HitHunter) cells
T1 construct: expressed in transfected cells
Protocol: (§1) cAMP homogeneous time-resolved fluorescence (HTRF): experimental methods. Compound efficacy is determined using the cAMP Gs dynamic HTRF assay (Cisbio, catalog #62AM4PEC) largely following the manufacturer's instructions, also detailed below.
(§2) Standard serial dilution curves are 10-point, 5-fold dilutions starting from a highest concentration of 10 μM. […] Assay plates are centrifuged at 500×g for 10 seconds. Compounds and IBMX are prepared at 2× final dose to compensate for addition of cells.
(§3) Cell preparation: 1× stimulation buffer, washing PBS (Dulbecco's phosphate-buffered saline, —Mg —Ca; Caisson Labs, catalog #PBL01), assay PBS (Dulbecco's phosphate-buffered saline, +Mg, +Ca; Caisson Labs, catalog #PBL02) and Versene (0.02% EDTA disodium salt solution in PBS without calcium or magnesium; Caisson Labs, catalog #EDL01) are pre-warmed to 37° C. Cells expressing beta-adrenergic receptor were washed in washing PBS to remove growth medium and then released from the surface by incubating with Versene for 5-10 minutes at 37° C. Cells are harvested using assay PBS, counted manually by hemocytometer or by an automated cell counter, pelleted by centrifugation (200×g, 5 minutes) and resuspended in 37° C. 1× stimulation buffer to a final density of […]. 5 μL of the suspended cell solution (7500 cell total) are added to all wells of the 384 well assay plate, the assay plate was covered with an Axygen® plate seal (Corning PCR-SP) and incubated in a humidified 37° C. environment supplemented with 5% CO2 for 30 minutes.
(§4) HTRF reagent addition, reading and data analysis: After 30 minutes of cell stimulation with test compound, the assay plates are centrifuged at 500×g for 10 seconds, and incubation was stopped with the addition of 5 μL cAMP-D2 acceptor, diluted 1:21 in detection and lysis buffer 2 (Cisbio 62CL2FDF) was added to all cells. Subsequently, 5 μL Anti-cAMP-Eu Donor, diluted 1:21 in detection and lysis buffer 2, was added to cells. Plates were sealed and reactions gently ‘vortexed’ at 900 rpm on a Heidolph Titramax 1000 for at least 30 minutes at room temperature. Plates are centrifuged again at 500×g for 10 seconds, and HTRF was measured using a Tecan Spark plate reader at 50 flashes per well. […] Potency estimates (EC50 and pEC50) are derived from the four-parameter nonlinear regression of the concentration-effect curve and an estimate of relative efficacy is determined by comparing the magnitude of the test compound HTRF signal window (min-max dose) with the signal window of the full agonist control, isoproterenol.

T1 sequence (P08588 whole entry): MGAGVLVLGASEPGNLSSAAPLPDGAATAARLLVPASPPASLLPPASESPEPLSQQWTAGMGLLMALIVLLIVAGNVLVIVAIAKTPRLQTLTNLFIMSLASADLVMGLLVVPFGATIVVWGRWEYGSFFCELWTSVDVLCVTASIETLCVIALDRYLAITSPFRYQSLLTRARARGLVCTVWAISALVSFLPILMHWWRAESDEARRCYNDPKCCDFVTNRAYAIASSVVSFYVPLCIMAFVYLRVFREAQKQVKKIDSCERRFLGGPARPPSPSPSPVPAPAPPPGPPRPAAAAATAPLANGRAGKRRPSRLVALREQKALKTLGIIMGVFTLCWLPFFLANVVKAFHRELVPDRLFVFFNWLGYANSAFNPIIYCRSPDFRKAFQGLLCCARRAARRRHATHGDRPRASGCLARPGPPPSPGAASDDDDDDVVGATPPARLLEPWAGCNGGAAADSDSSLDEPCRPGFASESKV

| Structure (SMILES) | Average pEC50 [Receptor subtype: B1-AR; Cell type: CHO-K1 (HitHunter)] |
| --- | --- |
| CC(C)(C)NC[C@H](O)c1cnc(N)c(C(F)(F)F)c1 [Compound 02-2] | D (D < 6) |

same assay, conditions: CHO-K1 (HitHunter) cells; read-out: Average pEC50 [Receptor subtype: B1-AR; Cell type: CHO-K1 (HitHunter)] (converted)

| Structure (SMILES) | EC50 |
| --- | --- |
| CC(C)(C)NC[C@H](O)c1cnc(N)c(Cl)c1 [Compound 02-1] | 100 to 1000 nM |
| Cc1cc(C(O)CNC(C)(C)C)nnc1N (stereo not shown) [Compound 02-3] | > 1000 nM |
| Cc1nc([C@@H](O)CNC(C)(C)C)cnc1N [Compound 02-4] | 100 to 1000 nM |
| CC(C)(C)NC[C@@H](O)c1cccc(N)n1 [Compound 02-6] | 100 to 1000 nM |
| CC(C)(C)NC[C@H](O)c1cccc(O)n1 [Compound 02-7] | > 1000 nM |
| CC(C)(C)NC[C@@H](O)c1cccc(O)n1 [Compound 02-8] | > 1000 nM |
| Cc1nc(N)c(Cl)cc1[C@H](O)CNC(C)(C)C [Compound 02-9] | 100 to 1000 nM |
| Cc1nc(N)c(C#N)cc1[C@@H](O)CNC(C)(C)C [Compound 02-10] | > 1000 nM |
| Cc1nc(N)c(C#N)cc1[C@H](O)CNC(C)(C)C [Compound 02-11] | > 1000 nM |
| Cc1cc(N)nc([C@H](O)CNC(C)(C)C)c1 [Compound 02-12] | > 1000 nM |
| Cc1cc(N)nc([C@@H](O)CNC(C)(C)C)c1 [Compound 02-13] | 10 to 100 nM |
| Cc1nc(N)c(Cl)cc1[C@@H](O)CNC(C)(C)C [Compound 02-14] | 10 to 100 nM |
| CC(C)(C)NC[C@H](O)c1cccc2[nH]c(=O)ccc12 [Compound 04-1, (R)-5-(2-(tert-butylamino)-1-hydroxyethyl)quinolin-2(1H)-one] | < 10 nM |
| Cn1c(=O)ccc2c([C@@H](O)CNC(C)(C)C)cccc21 [Compound 04-2] | 10 to 100 nM |
| CC(C)(C)NC[C@H](O)c1cccc2oc(=O)ccc12 [Compound 04-3] | > 1000 nM |
| CC(C)(C)NC[C@H](O)c1ccc(F)c2[nH]c(=O)ccc12 [Compound 04-4] | < 10 nM |
| CC(C)(C)NC[C@H](O)c1nccc2[nH]c(=O)ccc12 [Compound 04-5, (S)-5-(2-(tert-butylamino)-1-hydroxyethyl)-1,6-naphthyridin-2(1H)-one] | > 1000 nM |
| CC(C)(C)NC[C@H](O)c1ccc2c(n1)OCCO2 [Compound 04-7] | 10 to 100 nM |
| CC(C)(C)NC[C@H](O)c1ccc2c(n1)CCC2 [Compound 04-9] | 100 to 1000 nM |
| CC(C)(C)NC[C@H](O)c1ccc2c(n1)NCCO2 [Compound 04-10] | 10 to 100 nM |
| CC(C)(C)NC[C@H](O)c1ccc2c(n1)NCC2 [Compound 04-11] | 10 to 100 nM |
| COc1ccc(C[C@@H](C)NC[C@H](O)c2ccc3c(n2)NCCO3)cc1 [Compound 04-12] | 100 to 1000 nM |
| CC(C)(C)NC[C@H](O)c1ccnc2[nH]c(=O)ccc12 [Compound 04-13] | 10 to 100 nM |
| CC(C)(C)NC[C@@H](O)c1cccc2oc(=O)ccc12 [Compound 04-14] | 100 to 1000 nM |
| Cn1c(=O)ccc2c([C@H](O)CNC(C)(C)C)cccc21 [Compound 04-15] | > 1000 nM |
| CC(C)(C)NC[C@@H](O)c1ccc(F)c2[nH]c(=O)ccc12 [Compound 04-16] | 100 to 1000 nM |
| Cc1cc2c([C@H](O)CNC(C)(C)C)cccc2[nH]c1=O [Compound 04-17] | 100 to 1000 nM |
| Cc1cc2c([C@@H](O)CNC(C)(C)C)cccc2[nH]c1=O [Compound 04-18] | < 10 nM |
| CC(C)(C)NC[C@H](O)c1cccc2c1OCC(=O)N2 [Compound 04-19] | < 10 nM |

same assay, conditions: Table 2; cAMP HTRF; read-out: β1 EC50

| Structure (SMILES) | EC50 |
| --- | --- |
| CC(C)(C)NC[C@H](O)c1cnc(N)c(Cl)c1 [Compound 02-1] | 100 to 1000 nM |
| CC(C)(C)NC[C@H](O)c1cnc(N)c(C(F)(F)F)c1 [Compound 02-2] | > 1000 nM |

target: T2, β2-adrenergic receptor (B2-AR) (Homo sapiens, UniProt P07550); test: cAMP Gs dynamic HTRF assay, cells expressing β2-adrenergic receptor; type: cell-based; details: CHO-K1 (HitHunter) cells
T2 construct: expressed in transfected cells
T2 sequence (P07550 whole entry): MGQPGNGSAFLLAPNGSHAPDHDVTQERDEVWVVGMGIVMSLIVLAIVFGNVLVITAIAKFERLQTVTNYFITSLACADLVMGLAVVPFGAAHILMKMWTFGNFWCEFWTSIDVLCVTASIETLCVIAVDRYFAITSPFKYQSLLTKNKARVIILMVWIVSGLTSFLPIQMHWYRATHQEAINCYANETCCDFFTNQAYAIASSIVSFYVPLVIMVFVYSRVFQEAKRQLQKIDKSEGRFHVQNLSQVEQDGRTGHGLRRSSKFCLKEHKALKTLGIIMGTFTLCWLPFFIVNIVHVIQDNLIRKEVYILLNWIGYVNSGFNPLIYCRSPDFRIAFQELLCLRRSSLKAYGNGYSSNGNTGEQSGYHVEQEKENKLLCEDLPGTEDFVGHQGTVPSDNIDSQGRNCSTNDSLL
Protocol: as §1, §2, §3, §4

| Structure (SMILES) | Average pEC50 [Receptor subtype: B2-AR; Cell type: CHO-K1 (HitHunter)] |
| --- | --- |
| CC(C)(C)NC[C@H](O)c1cnc(N)c(C(F)(F)F)c1 [Compound 02-2] | D (D < 6) |

same assay, conditions: CHO-K1 (HitHunter) cells; read-out: Average pEC50 [Receptor subtype: B2-AR; Cell type: CHO-K1 (HitHunter)] (converted)

| Structure (SMILES) | EC50 |
| --- | --- |
| CC(C)(C)NC[C@H](O)c1cnc(N)c(Cl)c1 [Compound 02-1] | 10 to 100 nM |
| Cc1cc(C(O)CNC(C)(C)C)nnc1N (stereo not shown) [Compound 02-3] | 100 to 1000 nM |
| Cc1nc([C@@H](O)CNC(C)(C)C)cnc1N [Compound 02-4] | > 1000 nM |
| CC(C)(C)NC[C@@H](O)c1cccc(N)n1 [Compound 02-6] | 10 to 100 nM |
| CC(C)(C)NC[C@H](O)c1cccc(O)n1 [Compound 02-7] | > 1000 nM |
| CC(C)(C)NC[C@@H](O)c1cccc(O)n1 [Compound 02-8] | > 1000 nM |
| Cc1nc(N)c(Cl)cc1[C@H](O)CNC(C)(C)C [Compound 02-9] | 10 to 100 nM |
| Cc1nc(N)c(C#N)cc1[C@@H](O)CNC(C)(C)C [Compound 02-10] | 100 to 1000 nM |
| Cc1nc(N)c(C#N)cc1[C@H](O)CNC(C)(C)C [Compound 02-11] | > 1000 nM |
| Cc1cc(N)nc([C@H](O)CNC(C)(C)C)c1 [Compound 02-12] | > 1000 nM |
| Cc1cc(N)nc([C@@H](O)CNC(C)(C)C)c1 [Compound 02-13] | 10 to 100 nM |
| Cc1nc(N)c(Cl)cc1[C@@H](O)CNC(C)(C)C [Compound 02-14] | < 10 nM |
| CC(C)(C)NC[C@H](O)c1cccc2[nH]c(=O)ccc12 [Compound 04-1, (R)-5-(2-(tert-butylamino)-1-hydroxyethyl)quinolin-2(1H)-one] | < 10 nM |
| Cn1c(=O)ccc2c([C@@H](O)CNC(C)(C)C)cccc21 [Compound 04-2] | < 10 nM |
| CC(C)(C)NC[C@H](O)c1cccc2oc(=O)ccc12 [Compound 04-3] | 100 to 1000 nM |
| CC(C)(C)NC[C@H](O)c1ccc(F)c2[nH]c(=O)ccc12 [Compound 04-4] | < 10 nM |
| CC(C)(C)NC[C@H](O)c1nccc2[nH]c(=O)ccc12 [Compound 04-5, (S)-5-(2-(tert-butylamino)-1-hydroxyethyl)-1,6-naphthyridin-2(1H)-one] | > 1000 nM |
| CC(C)(C)NC[C@H](O)c1ccc2c(n1)OCCO2 [Compound 04-7] | 10 to 100 nM |
| CC(C)(C)NC[C@H](O)c1ccc2c(n1)CCC2 [Compound 04-9] | 10 to 100 nM |
| CC(C)(C)NC[C@H](O)c1ccc2c(n1)NCCO2 [Compound 04-10] | 10 to 100 nM |
| CC(C)(C)NC[C@H](O)c1ccc2c(n1)NCC2 [Compound 04-11] | 10 to 100 nM |
| COc1ccc(C[C@@H](C)NC[C@H](O)c2ccc3c(n2)NCCO3)cc1 [Compound 04-12] | 10 to 100 nM |
| CC(C)(C)NC[C@H](O)c1ccnc2[nH]c(=O)ccc12 [Compound 04-13] | < 10 nM |
| CC(C)(C)NC[C@@H](O)c1cccc2oc(=O)ccc12 [Compound 04-14] | < 10 nM |
| Cn1c(=O)ccc2c([C@H](O)CNC(C)(C)C)cccc21 [Compound 04-15] | 100 to 1000 nM |
| CC(C)(C)NC[C@@H](O)c1ccc(F)c2[nH]c(=O)ccc12 [Compound 04-16] | 10 to 100 nM |
| Cc1cc2c([C@H](O)CNC(C)(C)C)cccc2[nH]c1=O [Compound 04-17] | > 1000 nM |
| Cc1cc2c([C@@H](O)CNC(C)(C)C)cccc2[nH]c1=O [Compound 04-18] | 10 to 100 nM |
| CC(C)(C)NC[C@H](O)c1cccc2c1OCC(=O)N2 [Compound 04-19] | < 10 nM |

same assay, conditions: Table 2; cAMP HTRF; read-out: β2 EC50

| Structure (SMILES) | EC50 |
| --- | --- |
| CC(C)(C)NC[C@H](O)c1cnc(N)c(Cl)c1 [Compound 02-1] | 10 to 100 nM |
| CC(C)(C)NC[C@H](O)c1cnc(N)c(C(F)(F)F)c1 [Compound 02-2] | > 1000 nM |
